Test results from patent publication US10251395B2, “Substituted furano-/thienocycloalkylamino-2-pyrimidine derivatives and use thereof for controlling undesired plant growth” (Bayer CropScience Aktiengesellschaft, priority 2015, dated 2019).

Experiments:
Type in all cases: in vivo
Abutilon theophrasti [1] = assay: Pre-emergence herbicidal effect; conditions: scored visually after 3 weeks
Summary of the method: (§1)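 Herbicidal activity (%) is a visual rating made 3 weeks after treatment by comparison with untreated controls, where 0% equals control plants and 100% means the plants died. Application went onto the soil covering sown seeds before emergence.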

Alopecurus myosuroides [2] = assay: Pre-emergence herbicidal effect; conditions: scored visually after 3 weeks
Summary of the method: as §1

Amaranthus retroflexus [3] = assay: Pre-emergence herbicidal effect; conditions: scored visually after 3 weeks
Summary of the method: as §1

Avena fatua = assay: Pre-emergence herbicidal effect; conditions: Dosage 320 g/ha, scored visually after 3 weeks
Summary of the method: as §1

Echinochloa crus-galli [4] = assay: Pre-emergence herbicidal effect; conditions: scored visually after 3 weeks
Summary of the method: as §1

Ipomoea purpurea [5] = assay: Pre-emergence herbicidal effect; conditions: scored visually after 3 weeks
Summary of the method: as §1

Matricaria inodora [6] = assay: Pre-emergence herbicidal effect; conditions: scored visually after 3 weeks
Summary of the method: as §1

Polygonum convolvulus [7] = assay: Pre-emergence herbicidal effect; conditions: scored visually after 3 weeks
Summary of the method: as §1

Setaria viridis [8] = assay: Pre-emergence herbicidal effect; conditions: scored visually after 3 weeks
Summary of the method: as §1

Stellaria media [9] = assay: Pre-emergence herbicidal effect; conditions: scored visually after 3 weeks
Summary of the method: as §1

Veronica persica [10] = assay: Pre-emergence herbicidal effect; conditions: scored visually after 3 weeks
Summary of the method: as §1

Viola tricolor [11] = assay: Pre-emergence herbicidal effect; conditions: scored visually after 3 weeks
Summary of the method: as §1

Abutilon theophrasti [12] = assay: Post-emergence herbicidal effect; conditions: assessed visually after about 3 weeks vs untreated controls
Summary of the method: (§2)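 Ratings are visual percentages taken around 3 weeks after treatment, compared with untreated plants. Treatment consisted of an aqueous spray of WP or EC formulations, with 0.2% wetting agent, onto one-leaf-stage weeds raised from seed in sandy loam.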

Alopecurus myosuroides [13] = assay: Post-emergence herbicidal effect; conditions: 320 g/ha, assessed visually after about 3 weeks vs untreated controls
Summary of the method: as §2

Amaranthus retroflexus [14] = assay: Post-emergence herbicidal effect; conditions: assessed visually after about 3 weeks vs untreated controls
Summary of the method: as §2

Echinochloa crus-galli [15] = assay: Post-emergence herbicidal effect; conditions: assessed visually after about 3 weeks vs untreated controls
Summary of the method: as §2

Ipomoea purpurea [16] = assay: Post-emergence herbicidal effect; conditions: assessed visually after about 3 weeks vs untreated controls
Summary of the method: as §2

Lolium multiflorum [17] = assay: Post-emergence herbicidal effect; conditions: 320 g/ha, assessed visually after about 3 weeks vs untreated controls
Summary of the method: as §2

Matricaria inodora [18] = assay: Post-emergence herbicidal effect; conditions: 320 g/ha, assessed visually after about 3 weeks vs untreated controls
Summary of the method: as §2

Polygonum convolvulus [19] = assay: Post-emergence herbicidal effect; conditions: assessed visually after about 3 weeks vs untreated controls
Summary of the method: as §2

Setaria viridis [20] = assay: Post-emergence herbicidal effect; conditions: assessed visually after about 3 weeks vs untreated controls
Summary of the method: as §2

Stellaria media [21] = assay: Post-emergence herbicidal effect; conditions: assessed visually after about 3 weeks vs untreated controls
Summary of the method: as §2

Veronica persica [22] = assay: Post-emergence herbicidal effect; conditions: assessed visually after about 3 weeks vs untreated controls
Summary of the method: as §2

Viola tricolor [23] = assay: Post-emergence herbicidal effect; conditions: assessed visually after about 3 weeks vs untreated controls
Summary of the method: as §2

Lolium multiflorum [24] = assay: Pre-emergence herbicidal effect; conditions: Dosage 320 g/ha, scored visually after 3 weeks
Summary of the method: as §1

Cc1cc2c(s1)CCCC2Nc1ncc(C(F)(F)F)c(N)n1 (racemic) [compound 61]
ABUTH pre-emergence efficacy (herbicidal activity) (Abutilon theophrasti [1]; Dosage 80 g/ha): 30%
ABUTH pre-emergence efficacy (herbicidal activity) (Abutilon theophrasti [1]; Dosage 320 g/ha): 100%
ALOMY pre-emergence efficacy (herbicidal activity) (Alopecurus myosuroides [2]; Dosage 80 g/ha): 80%
ALOMY pre-emergence efficacy (herbicidal activity) (Alopecurus myosuroides [2]; Dosage 320 g/ha): 100%
AMARE pre-emergence efficacy (herbicidal activity) (Amaranthus retroflexus [3]; Dosage 80 g/ha): 100%
AMARE pre-emergence efficacy (herbicidal activity) (Amaranthus retroflexus [3]; Dosage 320 g/ha): 100%
AVEFA pre-emergence efficacy (herbicidal activity) (Avena fatua): 80%
ECHCG pre-emergence efficacy (herbicidal activity) (Echinochloa crus-galli [4]; Dosage 80 g/ha): 90%
ECHCG pre-emergence efficacy (herbicidal activity) (Echinochloa crus-galli [4]; Dosage 320 g/ha): 90%
PHBPU pre-emergence efficacy (herbicidal activity) (Ipomoea purpurea [5]; Dosage 320 g/ha): 90%
MATIN pre-emergence efficacy (herbicidal activity) (Matricaria inodora [6]; Dosage 80 g/ha): 100%
MATIN pre-emergence efficacy (herbicidal activity) (Matricaria inodora [6]; Dosage 320 g/ha): 100%
POLCO pre-emergence efficacy (herbicidal activity) (Polygonum convolvulus [7]; Dosage 80 g/ha): 90%
POLCO pre-emergence efficacy (herbicidal activity) (Polygonum convolvulus [7]; Dosage 320 g/ha): 90%
SETVI pre-emergence efficacy (herbicidal activity) (Setaria viridis [8]; Dosage 80 g/ha): 100%
SETVI pre-emergence efficacy (herbicidal activity) (Setaria viridis [8]; Dosage 320 g/ha): 100%
STEME pre-emergence efficacy (herbicidal activity) (Stellaria media [9]; Dosage 80 g/ha): 90%
STEME pre-emergence efficacy (herbicidal activity) (Stellaria media [9]; Dosage 320 g/ha): 100%
VERPE pre-emergence efficacy (herbicidal activity) (Veronica persica [10]; Dosage 80 g/ha): 100%
VERPE pre-emergence efficacy (herbicidal activity) (Veronica persica [10]; Dosage 320 g/ha): 100%
VIOTR pre-emergence efficacy (herbicidal activity) (Viola tricolor [11]; Dosage 80 g/ha): 80%
VIOTR pre-emergence efficacy (herbicidal activity) (Viola tricolor [11]; Dosage 320 g/ha): 100%
post-emergence efficacy ABUTH (Abutilon theophrasti [12]; 80 g/ha): 90%
post-emergence efficacy ABUTH (Abutilon theophrasti [12]; 320 g/ha): 90%
post-emergence efficacy ALOMY (Alopecurus myosuroides [13]): 100%
post-emergence efficacy AMARE (Amaranthus retroflexus [14]; 80 g/ha): 90%
post-emergence efficacy AMARE (Amaranthus retroflexus [14]; 320 g/ha): 90%
post-emergence efficacy ECHCG (Echinochloa crus-galli [15]; 80 g/ha): 100%
post-emergence efficacy ECHCG (Echinochloa crus-galli [15]; 320 g/ha): 100%
post-emergence efficacy PHBPU (Ipomoea purpurea [16]; 80 g/ha): 90%
post-emergence efficacy PHBPU (Ipomoea purpurea [16]; 320 g/ha): 100%
post-emergence efficacy LOLMU (Lolium multiflorum [17]): 90%
post-emergence efficacy MATIN (Matricaria inodora [18]): 100%
post-emergence efficacy POLCO (Polygonum convolvulus [19]; 80 g/ha): 80%
post-emergence efficacy POLCO (Polygonum convolvulus [19]; 320 g/ha): 90%
post-emergence efficacy SETVI (Setaria viridis [20]; 80 g/ha): 80%
post-emergence efficacy SETVI (Setaria viridis [20]; 320 g/ha): 90%
post-emergence efficacy STEME (Stellaria media [21]; 80 g/ha): 100%
post-emergence efficacy STEME (Stellaria media [21]; 320 g/ha): 100%
post-emergence efficacy VERPE (Veronica persica [22]; 80 g/ha): 100%
post-emergence efficacy VERPE (Veronica persica [22]; 320 g/ha): 100%
post-emergence efficacy VIOTR (Viola tricolor [23]; 80 g/ha): 90%
post-emergence efficacy VIOTR (Viola tricolor [23]; 320 g/ha): 90%

Cc1cc2c(s1)CCCC2Nc1nc(N)c(-c2cccc(F)c2)c(C(F)F)n1 (racemic) [compound 302]
ABUTH pre-emergence efficacy (herbicidal activity) (Abutilon theophrasti [1]; Dosage 320 g/ha): 80%
ALOMY pre-emergence efficacy (herbicidal activity) (Alopecurus myosuroides [2]; Dosage 320 g/ha): 70%
AMARE pre-emergence efficacy (herbicidal activity) (Amaranthus retroflexus [3]; Dosage 80 g/ha): 100%
AMARE pre-emergence efficacy (herbicidal activity) (Amaranthus retroflexus [3]; Dosage 320 g/ha): 100%
ECHCG pre-emergence efficacy (herbicidal activity) (Echinochloa crus-galli [4]; Dosage 320 g/ha): 100%
PHBPU pre-emergence efficacy (herbicidal activity) (Ipomoea purpurea [5]; Dosage 80 g/ha): 60%
PHBPU pre-emergence efficacy (herbicidal activity) (Ipomoea purpurea [5]; Dosage 320 g/ha): 80%
MATIN pre-emergence efficacy (herbicidal activity) (Matricaria inodora [6]; Dosage 80 g/ha): 90%
MATIN pre-emergence efficacy (herbicidal activity) (Matricaria inodora [6]; Dosage 320 g/ha): 100%
POLCO pre-emergence efficacy (herbicidal activity) (Polygonum convolvulus [7]; Dosage 80 g/ha): 70%
POLCO pre-emergence efficacy (herbicidal activity) (Polygonum convolvulus [7]; Dosage 320 g/ha): 100%
SETVI pre-emergence efficacy (herbicidal activity) (Setaria viridis [8]; Dosage 80 g/ha): 70%
SETVI pre-emergence efficacy (herbicidal activity) (Setaria viridis [8]; Dosage 320 g/ha): 100%
STEME pre-emergence efficacy (herbicidal activity) (Stellaria media [9]; Dosage 80 g/ha): 100%
STEME pre-emergence efficacy (herbicidal activity) (Stellaria media [9]; Dosage 320 g/ha): 100%
post-emergence efficacy ABUTH (Abutilon theophrasti [12]; 320 g/ha): 60%
post-emergence efficacy STEME (Stellaria media [21]; 320 g/ha): 80%
post-emergence efficacy VIOTR (Viola tricolor [23]; 80 g/ha): 90%
post-emergence efficacy VIOTR (Viola tricolor [23]; 320 g/ha): 90%

CCOC(=O)c1cnc(NC2CCCc3sc(C)cc32)nc1C (racemic) [compound 240]
ABUTH pre-emergence efficacy (herbicidal activity) (Abutilon theophrasti [1]; Dosage 320 g/ha): 70%
AMARE pre-emergence efficacy (herbicidal activity) (Amaranthus retroflexus [3]; Dosage 320 g/ha): 80%
PHBPU pre-emergence efficacy (herbicidal activity) (Ipomoea purpurea [5]; Dosage 320 g/ha): 10%
LOLMU pre-emergence efficacy (herbicidal activity) (Lolium multiflorum [24]): 60%
MATIN pre-emergence efficacy (herbicidal activity) (Matricaria inodora [6]; Dosage 80 g/ha): 90%
MATIN pre-emergence efficacy (herbicidal activity) (Matricaria inodora [6]; Dosage 320 g/ha): 100%
POLCO pre-emergence efficacy (herbicidal activity) (Polygonum convolvulus [7]; Dosage 80 g/ha): 70%
POLCO pre-emergence efficacy (herbicidal activity) (Polygonum convolvulus [7]; Dosage 320 g/ha): 70%
SETVI pre-emergence efficacy (herbicidal activity) (Setaria viridis [8]; Dosage 80 g/ha): 90%
SETVI pre-emergence efficacy (herbicidal activity) (Setaria viridis [8]; Dosage 320 g/ha): 100%
STEME pre-emergence efficacy (herbicidal activity) (Stellaria media [9]; Dosage 80 g/ha): 100%
STEME pre-emergence efficacy (herbicidal activity) (Stellaria media [9]; Dosage 320 g/ha): 100%
VERPE pre-emergence efficacy (herbicidal activity) (Veronica persica [10]; Dosage 80 g/ha): 100%
VERPE pre-emergence efficacy (herbicidal activity) (Veronica persica [10]; Dosage 320 g/ha): 100%
VIOTR pre-emergence efficacy (herbicidal activity) (Viola tricolor [11]; Dosage 80 g/ha): 70%
VIOTR pre-emergence efficacy (herbicidal activity) (Viola tricolor [11]; Dosage 320 g/ha): 100%
